Laboratory results: patent publication US20260242490A1, “METHODS OF TREATING NAFLD AND NASH” (CytoDyn Inc., priority 2022, published 2026)
Several values for one entry are separate records, joined by “and”; a condition that tells them apart may be missing. Identical values can stand only once. Marks after values point to notes of the source that are not given here.

Assays:
[1] = system: LFT, chemokine and cytokine levels and key biomarkers of inflammation; assay: CDI-NASH-01 clinical study, serum analysis of biomarkers; format: in vivo, human
Source text: (§1) The secondary efficacy objective was the change from baseline in fibro-inflammatory activity in the liver as assessed by cT1 (corrected T1) at week 14. cT1 is obtained by multiparametric magnetic resonance imaging of the liver and is a quantitative metric for assessing a composite of liver inflammation and fibrosis, expressed in milliseconds (msec). Additional objectives were change from baseline in LFT, chemokine and cytokine levels and key biomarkers of inflammation to week 14. In particular, change in serum cK18 and K18 by M30-M65 ELISA was assessed at week 14.

[2] = system: fibro-inflammatory activity in the liver; assay: CDI-NASH-01 clinical study, MRI cT1; format: in vivo, human; conditions: for MRI cT1: change baseline to week 14; for Mean change cT1: baseline to week 14
Description: (§2) Eligible patients included adults aged between 18 to 75 years (inclusive), with evidence of phenotype nonalcoholic steatohepatitis (NASH). […] A stable body weight (±5%) was required during the 6 months prior to screening. Exclusion criteria include but were not limited to HIV, autoimmune hepatitis, excess alcohol use, viral hepatitis, and prior or pending liver transplantation. No patients in the 350 mg study were concomitantly treated with semaglutide, while 18% of patients in the placebo group were concomitantly treated with semaglutide.
(§3) There were 21 patients in cT1 analysis and 22 for PDFF analysis. One patient obtained PDFF at End of Treatment but MRI for cT1 despite repeat was not able to quality (by 3 cuts) so no results for cT1 were obtained on that patient.
as §1

[3] = system: hepatic fat fraction; assay: CDI-NASH-01 clinical study, MRI-PDFF; format: in vivo, human; conditions: for MRI PDFF: change baseline to week 14; for Mean percent change from baseline PDFF: 700 mg SC weekly (n=22), baseline to week 14
Description: as §2, §3
The primary efficacy objective of the study was the change from baseline in hepatic fat fraction, assessed by magnetic resonance imaging-derived proton density fat fraction (MRI-PDFF) at week 14.

[4] = system: fibro-inflammatory activity in the liver; assay: CDI-NASH-01 clinical study, MRI cT1; format: in vivo, human; conditions: 350 mg SC weekly, all patients (n = 22), change baseline to week 14
[5] = system: HIV-1; conditions: in vitro and hu-PBL-SCID mouse model; at concentrations that do not affect CCR5 chemokine receptor activity; cited from earlier work
[6] = CDI-NASH-01 clinical study, safety and tolerability; format: in vivo, human
Source text: The secondary objective of this study was to assess the safety and tolerability of leronlimab in adult patients diagnosed with NASH compared to placebo.
(See FIG. 3 and FIG. 4.) There was no grade 3 or higher drug related treatment emergent adverse event.

[7] = system: CCR5-expressing cells; conditions: cited from earlier work
[8] = system: NASH patients by CCR5 haplotype; assay: CDI-NASH-01 clinical study, treatment outcome by CCR5 haplotype; format: in vivo, human
Source text: CCR5 haplotype was investigated for 5 patients. Haplotypes with very high transcription and thus high cell surface expression of CCR5 include HHE/HHE and HHG1/HHG1. High transcription alleles when combined with a null allele delta 32 or HHG2 will default to the heterozygous allele such that HHE/HHG2 and HHG1/HHG2 would also be high transcribers for CCR5.
CCR5 transcriptional activity and disease progression can be slowed or accelerated. Surface CCR5 expression level also played a part in NASH disease progression and specific CCR5 haplotypes correlated with dose and treatment outcomes.
All patients appeared to benefit from a dose that lowered RANTES (CCL5) levels to approximately zero.

[9] = system: serum cK18 and K18; assay: CDI-NASH-01 clinical study, M30-M65 ELISA; format: in vivo, human
Source text: as §1

[10] = molecular target: CCR5 (Homo sapiens, UniProt P51681); conditions: CCR5+ cells; cited from earlier work
[11] = system: NSG mice fed a high fat NASH-inducing diet; assay: Humanized NSG mice on high fat NASH-inducing diet, Oil Red O liver sections; format: in vivo, mouse
Description: 16 male were first humanized by intravenous inoculation with normal human umbilical cord blood cells. […] Mice were switched to a high fat (52%), high cholesterol (1.25%) diet. (FPC diet: fructose, palmitate, cholesterol, trans-fat; Envigo-Teklad TD.160785). […] Mice were euthanized at 16 weeks after initiation of the high fat, high cholesterol diet.
Liver sections were analyzed for indicators of NAFLD. […] Regions of interest were identified in micrographs and digitized using an Aperio AT2 slide scanner (Leica Biosystems), then analyzed using QuPath v0.2.01 imaging software. […] Percent positivity in IgG treated group was 9.751±1.789. […] Student's t test p=0.014. Steatosis was numerically scored following a semi-quantitative pathological standard.

[12] = placebo patients concomitantly treated with semaglutide (n = 5), change baseline to week 14
[13] = placebo patients concomitantly treated with semaglutide (n = 5)
[14] = 350 mg SC weekly, all patients (n = 22), change baseline to week 14
[15] = 350 mg SC weekly, baseline cT1 ≥ 875 (n = 14), change baseline to week 14
[16] = 350 mg SC weekly, baseline cT1 ≥ 950 (n = 8), change baseline to week 14
[17] = 350 mg, patients with baseline elevated ALT (n=8)
[18] = 700 mg, haplotypes associated with increased CCR5 expression
[19] = 700 mg, patients with increased CCR5 cell surface levels
[20] = 350 mg SC weekly, baseline cT1 ≥ 875 (n = 14)
[21] = 350 mg SC weekly, baseline cT1 ≥ 950 (n = 8)
[22] = 700 mg group with genetic haplotypes known to over produce CCR5, post hoc analysis

CCR5, sequence (P51681 whole entry): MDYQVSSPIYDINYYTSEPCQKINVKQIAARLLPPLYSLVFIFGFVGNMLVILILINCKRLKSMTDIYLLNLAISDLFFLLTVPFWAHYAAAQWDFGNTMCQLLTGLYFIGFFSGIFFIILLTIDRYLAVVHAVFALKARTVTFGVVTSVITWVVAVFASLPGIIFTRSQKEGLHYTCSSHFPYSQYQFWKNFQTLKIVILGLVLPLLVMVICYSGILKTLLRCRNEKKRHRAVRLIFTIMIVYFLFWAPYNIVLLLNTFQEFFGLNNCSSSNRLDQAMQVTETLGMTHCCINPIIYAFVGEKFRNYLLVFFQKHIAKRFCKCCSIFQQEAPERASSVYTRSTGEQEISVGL

## semaglutide [Placebo + Semaglutide, reference compound]
[1]; [12]
  Alanine Aminotransferase (ALT) s: −3.6 U/L
  Alpha-2-Mactoglobulin s: -11.6 mg/mL
  Apolipoprotein A1 s: -4.0 mg/dL
  Aspartate Aminotransferase (AST) s: −2.8 U/L
  CCL2 (Monocyte Chemotactic Protein-1): -6.00 pg/mL
  CCL3 (Macrophage Inflammatory Protein-1 Alpha): -1.2 pg/mL
  CCL5 (RANTES): 1.2
  CCL11 (Eosinophil Chemotactic Protein): 0.20 pg/mL
  CCL18 (Macrophage Inflammatory Protein-4): 4.80 ng/mL
  High Density Lipoprotein Cholesterol (HDL): -1.0 mg/dL
  IL-6 (Interleukin 6): 0.34 pg/mL
  IR-IRA (Interleukin 1 Receptor Antagonist): 26.6 pg/mL
  TNF Receptor 2 (STNFR-2): 0.52 ng/mL
  VCAM (Vascular Cell Adnhesion Molecule): -35.6 ng/mL
  VEGF (Vascular Endothelian Growth Factor): -11.2 pg/mL
[2]; [13]
  MRI cT1: −4.40
[3]; [13]
  MRI PDFF: −1.85%

## leronlimab: humanized IgG4 monoclonal antibody that binds to CCR5; humanized version of murine antibody PA14
[4]
  MRI cT1: significantly reduced
[1]; [14]
  Alpha-2-Mactoglobulin s: 8.96 mg/mL
  Gamma Glutamyl Transferase (GGT) s: −1.3 U/L
[1]; [15]
  Alkaline Phosphatase: −3.16 IU/L
  Apolipoprotein A1S: 9.2 mg/dL
  Aspartate Aminotransferase (AST) s: −5.5 U/L
  CCL2 (Monocyte Chemotactic Protein-1): -95.53 pg/mL
  CCL3 (Macrophage Inflammatory Protein-1 Alpha): −7.14*** pg/mL
  CCL5 (RANTES): −7.8
  CCL11 (Eosinophil Chemotactic Protein): -15.21 pg/mL
  CCL18 (Macrophage Inflammatory Protein-4): −32.1** ng/mL
  EN RAGE (Receptor Advanced Glycation End-Products): −115.50** ng/mL
  IL-1 (Interleukin 1) Beta: 0.00 pg/mL
  IL-6 (Interleukin 6): -0.44 pg/mL
  IL-8 (Interleukin 8): −12.6*** pg/mL
  IR-IRA (Interleukin 1 Receptor Antagonist): −34.79** pg/mL
  TIMP-1 (Tissue Inhibitor Metalloproteinases 1): -17.26 ng/mL
  TNF Receptor 2 (STNFR-2): −2.0*** ng/mL
  VCAM (Vascular Cell Adnhesion Molecule): −94.2*** ng/mL
[1]; [16]
  Alkaline Phosphatase: −7.25* IU/L
  Apolipoprotein A1S: 2.3 mg/dL
  Aspartate Aminotransferase (AST) s: −13.0 U/L
  CCL2 (Monocyte Chemotactic Protein-1): -179.0 pg/mL
  CCL3 (Macrophage Inflammatory Protein-1 Alpha): −8.0*** pg/mL
  CCL5 (RANTES): −25.3
  CCL11 (Eosinophil Chemotactic Protein): -16.25 pg/mL
  CCL18 (Macrophage Inflammatory Protein-4): −48.0** ng/mL
  EN RAGE (Receptor Advanced Glycation End-Products): −169.0* ng/mL
  Gamma Glutamyl Transferase (GGT) s: −6.13 U/L
  IL-1 (Interleukin 1) Beta: 0.00 pg/mL
  IL-6 (Interleukin 6): -0.30 pg/mL
  IL-8 (Interleukin 8): −4.25** pg/mL
  IR-IRA (Interleukin 1 Receptor Antagonist): -26.25 pg/mL
  TIMP-1 (Tissue Inhibitor Metalloproteinases 1): -25.3 ng/mL
  TNF Receptor 2 (STNFR-2): −2.7*** ng/mL
  VCAM (Vascular Cell Adnhesion Molecule): −81.0* ng/mL
[1]; [17]
  ALT, mean change: −29.3 U/L
[1]; 350 mg, patients with baseline elevated ALT (n=8), baseline 83.7
  ALT, mean after treatment: 54.3 U/L
[1]; 700 mg SC weekly
  CCL2 level: balanced or increased levels
  CCL3 level: balanced or increased levels
  CCL11 level: balanced or increased levels
  CCL18 level: balanced or increased levels
[1]; [18]
  Apolipoprotein A1: Improvements
  HDL: strong increase
[5]
  HIV-1 entry and replication: potently inhibits
[6]; Part 1 (700 mg) and Part 2 (350 mg)
  tolerability: generally well tolerated
[6]; Part 1 and Part 2
  grade 3 or higher drug related treatment emergent adverse event: no
[6]; not associated with discontinuation
  Injection site reaction and mild diarrhea, frequency vs placebo: occurred more frequently
[7]
  CCR5 surface expression / depletion of CCR5-expressing cells: does not downregulate CCR5 surface expression or deplete CCR5-expressing cells
[8]; 350 mg, haplotypes correlated with low to normal surface expression of CCR5
  treatment effect: benefited
[8]; 700 mg or 350 mg, haplotypes correlated with high surface expression of CCR5, greater at 700 mg
  treatment effect: positive effects
[8]; 700 mg, haplotypes correlated with low to normal surface expression of CCR5
  treatment effect: negative effects
[9]; 350 mg group
  M65 ELISA (cK18 and K18), mean change baseline to week 14: −8.18 U/L
[9]; 350 mg group, baseline 340.55
  M65 ELISA (cK18 and K18), mean at week 14: 332.4 U/L
[9]; [18]
  CK18: statistically significant reductions
[9]; [19]
  M30: statistically significant reductions
  M65: statistically significant reductions
[10]
  IC50 of CCL5-induced calcium mobilization: 45 µg/mL
[11]; 2 mg i.p. twice weekly
  fatty liver development: inhibited
[11]; 2 mg i.p. twice weekly vs IgG
  presence of fat in the liver, Oil Red O stain: markedly reduced
[2]; 350 mg SC weekly, all patients
  Mean change cT1: -24.38 ms
[2]; [20]
  MRI cT1: −42.00**
[2]; [21]
  MRI cT1: −68.86**
[2]; 350 mg subgroup with baseline cT1≥875 ms
  Mean change cT1: -42.00 ms
[2]; [17]
  cT1 change: -69 ms
[2]; 700 mg SC weekly
  Mean change cT1: -2.73 ms
[2]; 700 mg SC weekly, listed as Leronlimab
  Mean change cT1: did not reduce
[2]; [22]
  mean cT1 change: -45.4 ms
[3]; 350 mg SC weekly, all patients (n = 22)
  MRI PDFF: significantly reduced
[3]; [20]
  MRI PDFF: −4.37% and −4.38* %
[3]; [21]
  MRI PDFF: −9.39% and −9.27* %
[3]; [17]
  PDFF change: −18%
[3]
  Mean percent change from baseline PDFF: +3.75%
[3]; listed as Leronlimab
  Mean percent change from baseline PDFF: did not reduce
[3]; [22]
  mean percent PDFF change: −27.9%
[3]; [18]
  PDFF decrease: 28%
  steatosis: Improvements
